The structures appear in SMILES notation. In brackets after ≈: the same amount, converted by molar mass.

The MIC is the smallest concentration in the dilution series that meets the test's criterion for growth inhibition.

One experiment has as its system Trichoderma viride (Tv). The experiment is described as follows: Minimum inhibitory concentration (MIC), yeast/fungi in malt yeast agar. The format is cell-based, Trichoderma viride ATCC 8678. The settings on record: 30° C., 72 hours for fungi. The method, then:
(§1) The minimum inhibitory concentration (MIC) for the compounds listed in Table I is determined for 9 bacteria, using nutrient agar, and 7 yeast and fungi, using malt yeast agar. A one percent solution of the test compound is prepared in a mixture of acetone and water.
(§2) Malt yeast agar is prepared by adding 3 g yeast extract and 45 g malt agar per liter of deionized water. The specific agar is dispensed in 30 mL aliquots into 25×200 mm test tubes, capped and autoclaved for 15 minutes at 115° C.
(§3) The test tubes containing the agar are cooled in a water bath until the temperature of the agar is 48° C. Then, an appropriate amount of the one percent solution of the test compound is added (except in the controls where no compound is added) to the respective test tubes so that the final concentrations are 500, 250, 100, 50, 25, 10, 5, 2.5, 1.0 and zero parts per million of the test compound in the agar, thus having a known concentration of test compound dispersed therein. The contents of the test tubes are then transferred to respective petri plates. After drying for 24 hours, the petri plates containing nutrient agar are inoculated with bacteria and those containing malt yeast agar are inoculated with yeast and fungi.
(§4) The inoculation with the yeast and fungi is accomplished as follows. Cultures of yeast and fungi are incubated for seven days on malt yeast agar at 30° C. These cultures are used to prepare suspensions by the following procedure. A suspension of each organism is prepared by adding 10 mL of sterile saline and 10 microliters of octylphenoxy polyethoxy ethanol to the agar slant of yeast or fungi. The sterile saline/octylphenoxy polyethoxy ethanol solution is then agitated with a sterile swab to suspend the microorganism grown on the slant. Each resulting suspension is diluted into sterile saline (1 part suspension to 9 parts sterile saline). Aliquots of these dilutions are placed in individual wells of Steer's Replicator and petri plates inoculated as previously described. The petri plates are incubated at 30° C. and read after 48 hours for yeast and 72 hours for fungi.
(§5) Table II lists the bacteria, yeast and fungi used in the MIC test described above along with their respective American Type Culture Collection (ATCC) identification numbers.
(§6) In Tables III and IV, the MIC values of the compounds described in Table I as compared to the MIC of a standard commercial preservative (with 1-(3-chloroallyl)-3,5,7-triaza-1-azoniaadamantane chloride as the active agent and referred to in Tables III and IV as "STANDARD I") are set forth for the bacteria organisms and yeast/fungi organisms which are listed in Table II.
`N#CSCSc1nnnn1-c1ccc(Br)cc1` [IV, 1-(4-Bromophenyl)-5-thiomethylthiocyanato-1H-tetrazole] had an MIC of 25 µg/mL (≈ 76.2 µM).

The next experiment concerns Salmonella choleraesuis (Sc). The experiment can be described thus: Minimum inhibitory concentration (MIC), bacteria in nutrient agar. The format is cell-based, Salmonella choleraesuis ATCC 10708. The settings on record: Salmonella enterica, nutrient agar pH 6.8, 30° C., 48 hours. Here is the method:
as §1
(§7) Nutrient agar is prepared at pH 6.8, representing a neutral medium, and at pH 8.2, representing an alkaline medium. The nutrient agars are prepared by adding 23 g of nutrient agar to one liter of deionized water. In addition, the alkaline medium is prepared by adjusting a 0.04M solution of N-[tris-(hydroxymethyl)methyl]glycine buffered deionized water with concentrated sodium hydroxide to a pH of 8.5.
as §3
(§8) The inoculation with bacteria is accomplished by using the following procedure. Twenty-four hour-cultures of each of the bacteria are prepared by incubating the respective bacteria in tubes containing nutrient broth for 24 hours at 30° C. in a shaker. Dilutions of each of the 24 hour-cultures are made so that nine separate suspensions (one for each of the nine test bacteria) are made, each containing 10^8 colony forming units (CFU) per mL of suspension of a particular bacteria. Aliquots of 0.3 mL of each of the bacterial suspensions are used to fill the individual wells of Steer's Replicator. For each microbial suspension, 0.3 mL was used to fill three wells (i.e., three wells of 0.3 mL each) so that for the nine different bacteria, 27 wells are filled. The Steer's Replicator is then used to inoculate both the neutral and alkaline pH nutrient agar petri plates.
(§9) The inoculated petri plates are incubated at 30° C. for 48 hours and then read to determine if the test compound which is incorporated into the agar prevented growth of the respective bacteria.
as §5, §6
`N#CSCSc1nnnn1-c1ccc(Br)cc1` [IV, 1-(4-Bromophenyl)-5-thiomethylthiocyanato-1H-tetrazole] showed an MIC of 500 µg/mL (≈ 1520 µM).

Still in this experiment, the particulars now being: Salmonella enterica, nutrient agar pH 8.2, 30° C., 48 hours.
Compound `N#CSCSc1nnnn1-c1ccc(Br)cc1` [IV, 1-(4-Bromophenyl)-5-thiomethylthiocyanato-1H-tetrazole] came in with an MIC of 500 µg/mL (≈ 1520 µM).

The subject of a further experiment is Candida albicans (Ca). The experiment is described as follows: Minimum inhibitory concentration (MIC), yeast/fungi in malt yeast agar. The experiment is classed as cell-based, Candida albicans ATCC 10231. The settings on record: 30° C., 48 hours for yeast. The method, then:
as §1, §2, §3, §4, §5, §6
In the case of `N#CSCSc1nnnn1-c1ccc(Br)cc1` [IV, 1-(4-Bromophenyl)-5-thiomethylthiocyanato-1H-tetrazole], the MIC worked out at 25 µg/mL (≈ 76.2 µM).

Another experiment concerns Escherichia coli (Ec). The experiment can be described thus: Minimum inhibitory concentration (MIC), bacteria in nutrient agar. The experiment is classed as cell-based, Escherichia coli ATCC 11229. Particulars: nutrient agar pH 6.8, 30° C., 48 hours. The method, then: as §1, §7, §3, §8, §9, §5, §6
For the compound `N#CSCSc1nnnn1-c1ccc(Br)cc1` [IV, 1-(4-Bromophenyl)-5-thiomethylthiocyanato-1H-tetrazole], it took 500 µg/mL (≈ 1520 µM) to inhibit growth (MIC).

The same experiment, now with this note: nutrient agar pH 8.2, 30° C., 48 hours.
`N#CSCSc1nnnn1-c1ccc(Br)cc1` [IV, 1-(4-Bromophenyl)-5-thiomethylthiocyanato-1H-tetrazole] came in with a minimal inhibitory concentration (MIC) of 500 µg/mL (≈ 1520 µM).

In the next experiment the test system is Enterobacter aerogenes (Ea). The description is as above. The format is cell-based, Enterobacter aerogenes ATCC 13048. The settings on record: Klebsiella aerogenes; nutrient agar pH 6.8, 30° C., 48 hours. Here is the method:
as §1, §7, §3, §8, §9, §5, §6
The compound `N#CSCSc1nnnn1-c1ccc(Br)cc1` [IV, 1-(4-Bromophenyl)-5-thiomethylthiocyanato-1H-tetrazole] registered a minimal inhibitory concentration (MIC) of 500 µg/mL (≈ 1520 µM).

The experiment is the same for the next values; noted with them: Klebsiella aerogenes; nutrient agar pH 8.2, 30° C., 48 hours.
For the compound `N#CSCSc1nnnn1-c1ccc(Br)cc1` [IV, 1-(4-Bromophenyl)-5-thiomethylthiocyanato-1H-tetrazole], 500 µg/mL (≈ 1520 µM) was the least that counted as inhibitory (MIC).

Another experiment has as its system Fusarium oxysporum (Fo). The experiment is described as follows: Minimum inhibitory concentration (MIC), yeast/fungi in malt yeast agar. The format is cell-based, Fusarium oxysporum ATCC 48112. Particulars: 30° C., 72 hours for fungi. Here is the method: as §1, §2, §3, §4, §5, §6
In turn, `N#CSCSc1nnnn1-c1ccc(Br)cc1` [IV, 1-(4-Bromophenyl)-5-thiomethylthiocyanato-1H-tetrazole] showed an MIC below 10 µg/mL.

The subject of another experiment is Aureobasidium pullulan (Ap). The experiment is described as above. The format is cell-based, Aureobasidium pullulan ATCC 16622. Particulars: 30° C., read after 48 hours for yeast and 72 hours for fungi. The method, then:
as §1, §2, §3, §4, §5, §6
Compound `N#CSCSc1nnnn1-c1ccc(Br)cc1` [IV, 1-(4-Bromophenyl)-5-thiomethylthiocyanato-1H-tetrazole] gave a minimal inhibitory concentration (MIC) below 10 µg/mL.

The next experiment relates to Staphylococcus aureus (Sa). The experiment is described as follows: Minimum inhibitory concentration (MIC), bacteria in nutrient agar. The format is cell-based, Staphylococcus aureus ATCC 6538. Particulars: nutrient agar pH 6.8, 30° C., 48 hours. The method, then: as §1, §7, §3, §8, §9, §5, §6
The compound `N#CSCSc1nnnn1-c1ccc(Br)cc1` [IV, 1-(4-Bromophenyl)-5-thiomethylthiocyanato-1H-tetrazole] yielded an MIC of 500 µg/mL (≈ 1520 µM).

Still in this experiment, the particulars now being: nutrient agar pH 8.2, 30° C., 48 hours.
In turn, `N#CSCSc1nnnn1-c1ccc(Br)cc1` [IV, 1-(4-Bromophenyl)-5-thiomethylthiocyanato-1H-tetrazole] came in with an MIC of 500 µg/mL (≈ 1520 µM).

For the next experiment, the system named is Proteus vulgaris (Pv). The experiment is described as above. The experiment is classed as cell-based, Proteus vulgaris ATCC 881. Particulars: nutrient agar pH 6.8, 30° C., 48 hours. Here is the method: as §1, §7, §3, §8, §9, §5, §6
In turn, `N#CSCSc1nnnn1-c1ccc(Br)cc1` [IV, 1-(4-Bromophenyl)-5-thiomethylthiocyanato-1H-tetrazole] registered an MIC of 500 µg/mL (≈ 1520 µM).

The same experiment, now with this note: nutrient agar pH 8.2, 30° C., 48 hours.
With `N#CSCSc1nnnn1-c1ccc(Br)cc1` [IV, 1-(4-Bromophenyl)-5-thiomethylthiocyanato-1H-tetrazole], the MIC was found to be 500 µg/mL (≈ 1520 µM).

In a further experiment the test system is Pseudomonas aeruginosa (PRD-10). Described as above. The experiment is classed as cell-based, Pseudomonas aeruginosa ATCC 15442. Particulars: nutrient agar pH 6.8, 30° C., 48 hours. The method, then:
as §1, §7, §3, §8, §9, §5, §6
`N#CSCSc1nnnn1-c1ccc(Br)cc1` [IV, 1-(4-Bromophenyl)-5-thiomethylthiocyanato-1H-tetrazole] had a minimal inhibitory concentration (MIC) of 500 µg/mL (≈ 1520 µM).

The experiment is the same for the next values; noted with them: nutrient agar pH 8.2, 30° C., 48 hours.
Take `N#CSCSc1nnnn1-c1ccc(Br)cc1` [IV, 1-(4-Bromophenyl)-5-thiomethylthiocyanato-1H-tetrazole]: inhibition of growth (MIC) required 500 µg/mL (≈ 1520 µM).

The test system of another experiment is Penicillium chrysogenum (Pc). The experiment can be described thus: Minimum inhibitory concentration (MIC), yeast/fungi in malt yeast agar. The experiment is classed as cell-based, Penicillium chrysogenum ATCC 9480. The settings on record: 30° C., 72 hours for fungi. The method, then:
as §1, §2, §3, §4, §5, §6
As to `N#CSCSc1nnnn1-c1ccc(Br)cc1` [IV, 1-(4-Bromophenyl)-5-thiomethylthiocyanato-1H-tetrazole], the MIC was below 10 µg/mL.

A further experiment deals with Bacillus subtilis (Bs). The experiment is described as follows: Minimum inhibitory concentration (MIC), bacteria in nutrient agar. The format is cell-based, Bacillus subtilis ATCC 8473. Particulars: nutrient agar pH 6.8, 30° C., 48 hours. The method, then:
as §1, §7, §3, §8, §9, §5, §6
On to `N#CSCSc1nnnn1-c1ccc(Br)cc1` [IV, 1-(4-Bromophenyl)-5-thiomethylthiocyanato-1H-tetrazole], for which the minimal inhibitory concentration (MIC) was below 10 µg/mL.

The same experiment, now with this note: nutrient agar pH 8.2, 30° C., 48 hours.
Compound `N#CSCSc1nnnn1-c1ccc(Br)cc1` [IV, 1-(4-Bromophenyl)-5-thiomethylthiocyanato-1H-tetrazole] came in with a minimal inhibitory concentration (MIC) of 25 µg/mL (≈ 76.2 µM).

The next experiment relates to Klebsiella pneumoniae (Kp). The experiment is described as above. Particulars: nutrient agar pH 6.8, 30° C., 48 hours. The experiment is classed as cell-based, Klebsiella pneumoniae ATCC 8308. The method, then:
as §1, §7, §3, §8, §9, §5, §6
On to `N#CSCSc1nnnn1-c1ccc(Br)cc1` [IV, 1-(4-Bromophenyl)-5-thiomethylthiocyanato-1H-tetrazole], for which the lowest concentration to inhibit growth (MIC) was 500 µg/mL (≈ 1520 µM).

Staying with this experiment, now noted: nutrient agar pH 8.2, 30° C., 48 hours.
On to `N#CSCSc1nnnn1-c1ccc(Br)cc1` [IV, 1-(4-Bromophenyl)-5-thiomethylthiocyanato-1H-tetrazole], for which the minimum inhibitory concentration (MIC) was found to be 500 µg/mL (≈ 1520 µM).

The next experiment deals with Saccharomyces cerevisiae (Sc). The experiment can be described thus: Minimum inhibitory concentration (MIC), yeast/fungi in malt yeast agar. The format is cell-based, Saccharomyces cerevisiae ATCC 4105. The settings on record: 30° C., 48 hours for yeast. The method, then:
as §1, §2, §3, §4, §5, §6
The compound `N#CSCSc1nnnn1-c1ccc(Br)cc1` [IV, 1-(4-Bromophenyl)-5-thiomethylthiocyanato-1H-tetrazole] had an MIC below 10 µg/mL.

The next experiment relates to Aspergillus niger (An). The description is as above. The format is cell-based, Aspergillus niger ATCC 16404. The settings on record: 30° C., 72 hours for fungi. The method, then:
as §1, §2, §3, §4, §5, §6
In turn, `N#CSCSc1nnnn1-c1ccc(Br)cc1` [IV, 1-(4-Bromophenyl)-5-thiomethylthiocyanato-1H-tetrazole] displayed a minimal inhibitory concentration (MIC) below 10 µg/mL.
